# Assay results as given in US20220289746A1, “PYRROLIDINE DERIVATIVES” (Hoffmann-La Roche Inc., priority 2019, published 2022).
# Experiments:
# human M4 receptor [1] = target: T1, human M4 receptor (Homo sapiens, UniProt P08173); experiment: Calcium flux assay using fluorescent imaging (M4 PAM FLIPR assay); type: cell-based; parameters: expressed in transfected cells; host or cells: CHO (monoclonal line, clone 2); settings: CHO cells expressing human M4+Gqi5, acetylcholine EC20
# T1 sequence (P08173 1-479): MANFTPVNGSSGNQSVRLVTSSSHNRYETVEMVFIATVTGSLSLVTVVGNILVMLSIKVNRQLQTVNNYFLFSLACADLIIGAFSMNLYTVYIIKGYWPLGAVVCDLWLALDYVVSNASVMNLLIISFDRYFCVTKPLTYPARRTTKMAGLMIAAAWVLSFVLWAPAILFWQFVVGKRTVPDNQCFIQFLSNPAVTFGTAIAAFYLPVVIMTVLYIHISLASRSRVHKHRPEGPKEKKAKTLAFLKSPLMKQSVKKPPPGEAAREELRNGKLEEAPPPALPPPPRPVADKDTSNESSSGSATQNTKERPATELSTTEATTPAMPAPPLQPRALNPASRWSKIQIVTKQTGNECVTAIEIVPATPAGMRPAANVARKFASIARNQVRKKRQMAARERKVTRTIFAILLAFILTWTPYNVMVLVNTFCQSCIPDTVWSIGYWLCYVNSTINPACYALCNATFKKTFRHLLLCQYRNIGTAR
# How it was run: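 CHO cells stably expressing human M4 with Gqi5 were loaded with 2 μM Fluo-4-AM for about 90 min at 37 °C, in HBSS/20 mM HEPES pH 7.3/2.5 mM probenecid. For PAM mode, compound was pre-incubated 15 min before an EC20 acetylcholine challenge; calcium read on FDSS 7000. EC50 and efficacy are relative to 3 μM acetylcholine (EC100), four-parameter fit.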
# liver cells = experiment: Determination of the in vitro clearance in liver cells; type: in vitro ADME; settings: for clearance values reduced compared to clearance values of examples P1, P2 and P55: in vitro clearance, relative to reference compounds; for Clearance: in vitro intrinsic clearance, liver cells (hepatocyte cultures), 37° C.
# Description: Determination of the In Vitro Clearance
# Incubations of a test compound at different concentrations were performed in 96 well plates containing liver cells (5% CO2 atmosphere and 37° C.). At defined time points, either cell medium was taken or the whole well was quenched with acetonitrile containing an internal standard. Samples are then cooled and centrifuged before analysis by LC-MS/MS. Different enzyme markers (Cyp3A4 substrates Midazolam, Quinidin, CYP2B6 Buproprion, CYP2D6 Dextromethorphan, CYP2C9 Tolbutamide, FMO substrate Benzydamine, UGT substrate Raloxifene) for assessing the metabolic activity of the hepatocyte cultures were used as quality control.
# Log peak area ratios (test compound peak area/internal standard peak area) or concentrations were plotted against incubation time and a linear fit made to the data with emphasis upon the initial rate of compound disappearance. The slope of the fit is then used to calculate the intrinsic clearance:
# Additionally, the intrinsic clearance can also be deduced by the measured rates of metabolite formation.
# human M4 receptor [2] = target: T1, human M4 receptor; experiment: cAMP assay for M4 positive allosteric modulators (M4 PAM cAMP assay); type: cell-based; parameters: expressed in transfected cells; host or cells: CHO-K1; settings: CHO-K1 cells expressing human M4, forskolin 7.5 μM + acetylcholine EC20 (0.2 nM)
# How it was run: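 CHO-K1 cells stably expressing untagged human M4 pre-treated 15 min at 37 °C with compound plus IBMX, then stimulated 30 min with 7.5 μM forskolin and EC20 acetylcholine (0.2 nM). cAMP read by TR-FRET; normalised to 2 nM acetylcholine plus forskolin as 100%, sigmoidal fit giving EC50 and % efficacy.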
# M4 receptor = target: T2, M4 receptor (Mus musculus, UniProt P32211); settings: rodent in vivo; effects absent in M4 knockout mice; cited from earlier work
# T2 construct: host or cells: living mice (behavioural test)
# T2 sequence (P32211 1-479): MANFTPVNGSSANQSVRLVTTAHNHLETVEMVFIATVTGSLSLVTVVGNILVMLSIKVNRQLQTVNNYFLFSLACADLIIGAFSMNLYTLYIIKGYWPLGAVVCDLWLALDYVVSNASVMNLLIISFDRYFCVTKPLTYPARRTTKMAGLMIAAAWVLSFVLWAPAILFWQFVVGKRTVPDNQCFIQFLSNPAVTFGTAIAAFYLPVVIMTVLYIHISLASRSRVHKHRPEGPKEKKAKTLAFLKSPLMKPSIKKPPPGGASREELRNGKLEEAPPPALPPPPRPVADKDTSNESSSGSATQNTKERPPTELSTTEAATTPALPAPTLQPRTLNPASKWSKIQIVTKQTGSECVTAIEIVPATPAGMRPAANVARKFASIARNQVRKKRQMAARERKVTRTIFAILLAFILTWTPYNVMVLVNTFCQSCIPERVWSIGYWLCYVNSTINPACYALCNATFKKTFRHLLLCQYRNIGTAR
# muscarinic receptors = settings: 345 Alzheimer patients; cited from earlier work
smiles,measurement,setting,value
"Cc1nc2c(c(C)c1Cl)CN(C(=O)[C@@H]1CCN(c3cccnc3)C1)C2 [Example 1, (3-chloro-2,4-dimethyl-5,7-dihydropyrrolo[3,4-b]pyridin-6-yl)-[(3R)-1-(3-pyridyl)pyrrolidin-3-yl]methanone]",EC50,human M4 receptor [1]; Table 1,387 nM
same,"clearance values reduced compared to clearance values of examples P1, P2 and P55",liver cells,50%
same,Clearance,liver cells,9.3 μl/min/1 * 10^6 cells
same,EC50,human M4 receptor [2]; Table 1,155 nM
"Cc1nc2c(c(C)c1Cl)CN(C(=O)[C@@H]1CCN(c3ccncn3)C1)C2 [Example 2, (3-chloro-2,4-dimethyl-5,7-dihydropyrrolo[3,4-b]pyridin-6-yl)-[(3R)-1-pyrimidin-4-ylpyrrolidin-3-yl]methanone]",EC50,human M4 receptor [1]; Table 1,61 nM
same,"clearance values reduced compared to clearance values of examples P1, P2 and P55",liver cells,50%
same,Clearance,liver cells,3.5 μl/min/1 * 10^6 cells
same,EC50,human M4 receptor [2]; Table 1,79 nM
"COCc1nc2c(c(C)c1Cl)CN(C(=O)[C@@H]1CCN(c3ccncn3)C1)C2 [Example 55, [3-chloro-2-(methoxymethyl)-4-methyl-5,7-dihydropyrrolo[3,4-b]pyridin-6-yl]-[(3R)-1-pyrimidin-4-ylpyrrolidin-3-yl]methanone]",EC50,human M4 receptor [1]; Table 1,42 nM
same,"clearance values reduced compared to clearance values of examples P1, P2 and P55",liver cells,50%
same,Clearance,liver cells,2.1 μl/min/1 * 10^6 cells
same,EC50,human M4 receptor [2]; Table 1,192 nM
"COCc1nc2c(c(C)c1Cl)CN(C(=O)[C@@H]1CCN(c3cncnc3)C1)C2 [Example 58, [3-chloro-2-(methoxymethyl)-4-methyl-5,7-dihydropyrrolo[3,4-b]pyridin-6-yl]-[(3R)-1-pyrimidin-5-ylpyrrolidin-3-yl]methanone]",EC50,human M4 receptor [1]; Table 1,74 nM
same,EC50,human M4 receptor [2]; Table 1,179 nM
"COCc1nc2c(c(C)c1Cl)CN(C(=O)[C@@H]1CCN(c3ccnnc3)C1)C2 [Example 59, [3-chloro-2-(methoxymethyl)-4-methyl-5,7-dihydropyrrolo[3,4-b]pyridin-6-yl]-[(3R)-1-pyridazin-4-ylpyrrolidin-3-yl]methanone]",EC50,human M4 receptor [1]; Table 1,209 nM
same,EC50,human M4 receptor [2]; Table 1,881 nM
"Cc1nc2c(c(C)c1Cl)CN(C(=O)CC1CN(c3cccnc3)C1)C2 [Example P1, reference compound]",EC50,human M4 receptor [1]; Table 2,947 nM
same,Clearance,liver cells,20 μl/min/1 * 10^6 cells
same,EC50,human M4 receptor [2]; Table 2,55 nM
"Cc1nc2c(c(C)c1Cl)CN(C(=O)CC1CN(c3ccncn3)C1)C2 [Example P2, reference compound]",EC50,human M4 receptor [1]; Table 2,35 nM
same,Clearance,liver cells,7.9 μl/min/1 * 10^6 cells
same,EC50,human M4 receptor [2]; Table 2,53 nM
"COCc1nc2c(c(C)c1Cl)CN(C(=O)CC1CN(c3ccncn3)C1)C2 [Example P55, 1-[3-chloro-2-(methoxymethyl)-4-methyl-5,7-dihydropyrrolo[3,4-b]pyridin-6-yl]-2-(1-pyrimidin-4-ylazetidin-3-yl)ethanone, reference compound]",EC50,human M4 receptor [1]; Table 2,50 nM
same,Clearance,liver cells,5.1 μl/min/1 * 10^6 cells
Cc1nnc2sc(C(=O)NCc3ccc(S(=O)(=O)C(F)(F)F)cc3)c(N)c2c1C [VU0467154],effect on associative learning impairments induced by MK-801,M4 receptor,ameliorated the associative learning impairments
CCCCCCOc1nsnc1C1=CCCN(C)C1 [Xanomeline],effect on cognition and psychiatric symptoms,muscarinic receptors,improve cognition and psychiatric symptoms
